“Also recorded” adds a separate entry of the source.
Tested on: K7M2-luc2 pOS (VCAM-1/α4β1 interaction)
Test: Established pOS after K7M2-luc2 i.v., weekly intranasal blockade of VCAM-1/a4 from Day 7
Assay type: in vivo, Balb/c mice
Conditions: 50 μg i.n. weekly from Day 7
Experimental: FIGS. 9A-C illustrate targeting site-specific VCAM-1/a4 interaction blunted established pOS growth in vivo. (A) Balb/c mice were inoculated with 5×10^5 K7M2-luc2 i.v. on Day 0, and then treated with i.n. PBS, 50 μg iVCAM-1p, or 50 μg PS/2 (anti-a4) antibody weekly starting on Day 7. (A) representative images of mice up to 35 days. […] (C) 60% and 80% of pOS mice remained tumor free 1 month after weekly i.n. treatment with PS/2 antibody (filled circle) or iVCAM-1p (filled triangle), respectively. N=5-8 in each cohort.
To strengthen the crucial link between tVCAM-1 and α4β1 (FIGS. 5-8) and pOS survival, we performed pilot experiments to test whether direct functional blockade of VCAM-1/α4β1 interaction in the lung would result in the same pOS outcome as observed with MACs depletion. In collaboration with Nicole Steinmetz in CWRU School of Engineering, we treated mice (inoculated 7 days prior with a lethal dose of K7M2 i.v.) with weekly i.n. administration of 50 μg of a VCAM-1 inhibitory peptide (iVCAM-1p; amino acid sequence: VHPKQHR (SEQ ID NO: 1)). […] These pilot observations strengthen our hypothesis that pOS-MAC critically interact through the VCAM-1/α4 axis. […] As we administered mAb via i.n. route, much of the reported side effects of chronic systemic Natalizumab exposure (such as hepatic injury and progressive multifocal leukoencephalopathy) can potentially be limited by reducing the dose and targeting locally in the lung.

## VHPKQHR [iVCAM-1p]
  pOS tumor incidence: dramatic decreased
  tumor burden (relative BLI intensity, Day 7 BLI set as 1): dramatic decreased; also recorded: reduced tumor burden
1 month after treatment
  mice remaining tumor free: 80%

Source: patent US11911468B2, “Compositions and methods of treating sarcoma lung metastasis” (CASE WESTERN RESERVE UNIVERSITY, priority 2017, dated 2024)
